Source: patent US9580413B2, “Substituted pyrrolidines as ROS tyrosine kinase inhibitors” (NIPPON SHINYAKU CO., LTD., priority 2012, dated 2017)

Key:
JAK2 tyrosine kinase = molecular target: T1, JAK2 tyrosine kinase (Homo sapiens, UniProt O60674); experiment: JAK2 tyrosine kinase inhibitory activity test (ELISA); type: biochemical, humans; details: 25 μM ATP substrate solution, 30° C., one hour
T1 construct: purchased Carna Biosciences, Inc
Method: (§1) 1. Preparation of Test Substance:
(§2) A test substance was dissolved in dimethyl sulfoxide (DMSO) to 10 mM and further diluted with DMSO to concentrations of 100-fold of the concentrations to be measured (100, 10, 1, 0.1, and 0.01 μM). Furthermore, the resultant was diluted with an assay buffer to 20-fold, thereby preparing a solution as a test substance solution. A solution prepared by diluting DMSO with an assay buffer to 20-fold was used as a negative control. A buffer containing 15 mM Tris-Cl (pH 7.5), 0.01 (v/v) % Tween-20, and 1 mM dithiothreitol was used as the assay buffer.
(§3) 2. Measurement of ROS Tyrosine Kinase Activity and JAK2 Tyrosine Kinase Activity:
(§4) The activity was measured by adopting the ELISA method. […] Finally, an ROS kinase or a JAK2 kinase (derived from humans, Carna Biosciences, Inc.) (diluted with the assay buffer to 0.25 nM) was added to the plate at 20 μL per well, and the resulting mixture was stirred. A reaction was performed at 30° C. for one hour. After the plate was washed 4 times with a washing buffer (50 mM Tris-Cl (pH 7.5), 150 mM NaCl, and 0.02 (v/v) % Tween-20), a blocking buffer (0.1% bovine serum albumin, 50 mM Tris-Cl (pH 7.5), 150 mM NaCl, and 0.02 (v/v) % Tween-20) was added to the plate at 150 μL per well, and incubated at 30° C. for 30 minutes. The blocking buffer was then removed, and a horse radish peroxidase-labeled anti-phosphorylated tyrosine antibody (BD Biosciences, Inc.) (diluted with the blocking buffer to 10,000-fold) was added to the plate at 100 μL per well, and the plate was incubated at 30° C. for 30 minutes. After the plate was washed 4 times with the washing buffer, a 3,3′,5,5′-tetramethylbenzidine solution (Sigma-Aldrich Co., Ltd.) was added to the plate at 100 μL per well to develop the color for 10 minutes. The reaction was stopped by adding 0.1 M sulfuric acid at 100 μL per well. An absorbance at 450 nm was measured with a microplate reader (Model 3550, manufactured by BIO-RAD, Benchmark, manufactured by BIO-RAD, or iMARK, manufactured by BIO-RAD).
(§5) 3. Analysis of Measurement Results:
(§6) A non-linear regression analysis was performed for the measured absorbance with an SAS system (SAS Institute Inc.), and a concentration of each of the test substances of inhibiting the ROS tyrosine kinase activity or JAK2 tyrosine kinase activity at 50% (IC50) was calculated. The inhibitory activity (IC50, nM) of each of the test substances against the ROS tyrosine kinase or JAK2 tyrosine kinase is shown in Tables 6 to 8.

ROS tyrosine kinase = molecular target: T2, ROS tyrosine kinase (Homo sapiens, UniProt P08922); experiment: ROS tyrosine kinase inhibitory activity test (ELISA); type: biochemical, humans; details: 25 μM ATP substrate solution, 30° C., one hour
T2 construct: purchased Carna Biosciences, Inc
Method: as §1, §2, §3, §4, §5, §6

T2 sequence (P08922 28-2347): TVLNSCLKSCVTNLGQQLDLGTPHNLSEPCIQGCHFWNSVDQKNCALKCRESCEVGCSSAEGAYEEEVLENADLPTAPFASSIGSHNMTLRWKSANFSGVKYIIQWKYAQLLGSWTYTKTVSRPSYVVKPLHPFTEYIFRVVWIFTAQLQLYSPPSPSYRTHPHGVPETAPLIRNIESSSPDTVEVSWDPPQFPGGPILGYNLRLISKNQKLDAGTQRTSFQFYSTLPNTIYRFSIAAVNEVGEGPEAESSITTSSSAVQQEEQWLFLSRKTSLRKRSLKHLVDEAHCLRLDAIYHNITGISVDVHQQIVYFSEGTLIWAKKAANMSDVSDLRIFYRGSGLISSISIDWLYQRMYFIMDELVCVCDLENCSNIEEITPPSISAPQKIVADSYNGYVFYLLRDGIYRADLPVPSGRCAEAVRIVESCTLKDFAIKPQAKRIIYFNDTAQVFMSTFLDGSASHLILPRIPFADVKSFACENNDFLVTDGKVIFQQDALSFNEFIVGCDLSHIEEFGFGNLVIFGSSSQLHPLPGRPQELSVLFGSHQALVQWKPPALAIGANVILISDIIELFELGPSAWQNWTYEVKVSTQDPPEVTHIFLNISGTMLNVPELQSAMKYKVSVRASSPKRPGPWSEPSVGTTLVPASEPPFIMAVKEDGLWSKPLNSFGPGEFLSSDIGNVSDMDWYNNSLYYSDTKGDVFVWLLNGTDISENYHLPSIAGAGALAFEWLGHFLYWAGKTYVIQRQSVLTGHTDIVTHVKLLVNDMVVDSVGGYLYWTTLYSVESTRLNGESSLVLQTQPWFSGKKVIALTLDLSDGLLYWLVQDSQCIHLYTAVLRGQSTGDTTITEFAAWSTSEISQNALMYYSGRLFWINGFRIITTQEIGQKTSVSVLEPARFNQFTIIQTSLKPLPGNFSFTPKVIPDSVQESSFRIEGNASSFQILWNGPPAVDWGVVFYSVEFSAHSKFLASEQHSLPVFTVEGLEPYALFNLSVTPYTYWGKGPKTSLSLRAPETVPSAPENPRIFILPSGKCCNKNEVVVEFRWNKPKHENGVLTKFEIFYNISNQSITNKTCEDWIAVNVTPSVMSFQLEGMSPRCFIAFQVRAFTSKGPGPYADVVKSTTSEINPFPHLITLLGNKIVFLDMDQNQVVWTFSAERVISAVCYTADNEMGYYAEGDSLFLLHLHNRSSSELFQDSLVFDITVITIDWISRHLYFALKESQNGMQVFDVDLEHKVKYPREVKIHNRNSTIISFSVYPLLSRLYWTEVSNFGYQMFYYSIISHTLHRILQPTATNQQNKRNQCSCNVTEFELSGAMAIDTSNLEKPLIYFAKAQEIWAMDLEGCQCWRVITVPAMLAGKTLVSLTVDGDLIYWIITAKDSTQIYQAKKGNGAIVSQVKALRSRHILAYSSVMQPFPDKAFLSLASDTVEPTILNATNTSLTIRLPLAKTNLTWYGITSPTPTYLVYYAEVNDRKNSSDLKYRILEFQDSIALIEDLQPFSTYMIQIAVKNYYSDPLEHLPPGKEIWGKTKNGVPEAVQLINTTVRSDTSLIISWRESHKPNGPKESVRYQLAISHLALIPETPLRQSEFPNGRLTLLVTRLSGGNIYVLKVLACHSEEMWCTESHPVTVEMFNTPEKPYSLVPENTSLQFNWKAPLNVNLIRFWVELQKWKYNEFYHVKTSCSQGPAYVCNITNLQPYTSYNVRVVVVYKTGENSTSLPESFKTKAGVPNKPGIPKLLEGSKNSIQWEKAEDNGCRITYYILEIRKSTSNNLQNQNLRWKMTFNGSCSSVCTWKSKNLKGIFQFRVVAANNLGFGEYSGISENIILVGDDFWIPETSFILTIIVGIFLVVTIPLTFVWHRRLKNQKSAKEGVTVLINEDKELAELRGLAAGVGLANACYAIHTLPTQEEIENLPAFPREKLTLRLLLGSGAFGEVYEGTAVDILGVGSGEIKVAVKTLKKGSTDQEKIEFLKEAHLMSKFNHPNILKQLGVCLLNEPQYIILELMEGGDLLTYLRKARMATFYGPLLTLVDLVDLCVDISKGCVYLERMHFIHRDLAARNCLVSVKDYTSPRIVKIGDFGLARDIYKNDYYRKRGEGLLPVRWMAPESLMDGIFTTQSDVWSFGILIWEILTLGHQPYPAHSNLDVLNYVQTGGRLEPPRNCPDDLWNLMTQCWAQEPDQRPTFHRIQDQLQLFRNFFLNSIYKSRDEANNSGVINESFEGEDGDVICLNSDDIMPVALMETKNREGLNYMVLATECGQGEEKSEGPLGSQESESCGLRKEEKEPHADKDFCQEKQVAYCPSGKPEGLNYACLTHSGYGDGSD
T1 sequence (O60674 whole entry): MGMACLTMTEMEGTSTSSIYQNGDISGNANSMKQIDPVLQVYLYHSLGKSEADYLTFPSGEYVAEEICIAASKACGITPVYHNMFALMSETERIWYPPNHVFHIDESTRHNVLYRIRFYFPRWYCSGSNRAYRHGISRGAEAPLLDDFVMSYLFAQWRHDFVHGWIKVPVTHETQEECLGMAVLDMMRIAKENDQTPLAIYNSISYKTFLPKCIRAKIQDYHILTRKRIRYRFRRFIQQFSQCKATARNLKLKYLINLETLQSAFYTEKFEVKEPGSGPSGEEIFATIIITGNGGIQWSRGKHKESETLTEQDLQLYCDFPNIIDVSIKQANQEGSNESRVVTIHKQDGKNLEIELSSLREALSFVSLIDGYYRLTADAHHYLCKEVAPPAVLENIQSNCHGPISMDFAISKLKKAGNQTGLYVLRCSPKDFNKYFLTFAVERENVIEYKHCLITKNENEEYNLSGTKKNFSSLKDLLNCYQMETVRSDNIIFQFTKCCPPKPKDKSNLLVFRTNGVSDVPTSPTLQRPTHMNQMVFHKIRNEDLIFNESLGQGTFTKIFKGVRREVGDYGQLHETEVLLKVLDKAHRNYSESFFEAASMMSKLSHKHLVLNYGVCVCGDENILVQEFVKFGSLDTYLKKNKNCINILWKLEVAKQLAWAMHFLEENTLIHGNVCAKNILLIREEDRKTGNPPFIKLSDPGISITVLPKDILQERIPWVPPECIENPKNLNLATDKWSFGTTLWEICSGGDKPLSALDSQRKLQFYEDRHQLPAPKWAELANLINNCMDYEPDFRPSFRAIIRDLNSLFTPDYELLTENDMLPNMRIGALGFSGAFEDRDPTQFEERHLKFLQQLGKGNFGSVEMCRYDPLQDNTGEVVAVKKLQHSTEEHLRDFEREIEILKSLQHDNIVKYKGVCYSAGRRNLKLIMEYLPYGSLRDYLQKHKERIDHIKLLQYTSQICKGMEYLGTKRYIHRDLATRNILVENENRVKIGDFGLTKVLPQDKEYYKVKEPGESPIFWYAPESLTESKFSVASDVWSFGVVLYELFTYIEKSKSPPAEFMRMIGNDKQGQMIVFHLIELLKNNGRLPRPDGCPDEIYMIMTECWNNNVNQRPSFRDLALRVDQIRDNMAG

Structure (SMILES) | IC50 (JAK2 tyrosine kinase) [µM] | IC50 (ROS tyrosine kinase) [µM]
Cc1ccc(C2CCCN2c2nc(Nc3ncc(C#N)s3)c(C)c(-c3ccc(O)nc3)n2)cc1 (stereo not shown) [Example 16, 2-({6-(6-Hydroxypyridin-3-yl)-5-methyl-2-[2-(4-methylphenyl)pyrrolidin-1-yl]pyrimidin-4-yl}amino)-1,3-thiazole-5-carbonitrile] | 0.036 | 0.0015
Cc1ccc(C2CCCN2c2nc3c(c(Nc4ncc(C#N)s4)n2)CN(S(C)(=O)=O)CC3)cc1 (stereo not shown) [Example 72, 2-({2-[2-(4-Methylphenyl)pyrrolidin-1-yl]-6-(methylsulfonyl)-5,6,7,8-tetrahydropyrido[4,3-d]pyrimidin-4-yl}amino)-1,3-thiazole-5-carbonitrile] | > 1 | 0.097
Cc1cccc(C2CCCN2c2cncc(Nc3ncc(C#N)s3)n2)c1 (stereo not shown) [Example 46, 2-({6-[2-(3-Methylphenyl)pyrrolidin-1-yl]pyrazin-2-yl}amino)-1,3-thiazole-5-carbonitrile] | 0.28 | 0.0064
COCCn1cc(-c2nc(N3CCC[C@H]3c3ccc(C)cc3)nc(Nc3ncc(C#N)s3)c2OC)cn1 [Example 58, 2-({5-Methoxy-6-[1-(2-methoxyethyl)-1H-pyrazol-4-yl]-2-[(2S)-2-(4-methylphenyl)pyrrolidin-1-yl]pyrimidin-4-yl}amino)-1,3-thiazole-5-carbonitrile] | 0.24 | 0.0022
N#Cc1cnc(Nc2nc(N3CCC[C@H]3c3ccc(Cl)cc3)cnc2C2CC2)s1 [Example 36, 2-({6-[(2S)-2-(4-Chlorophenyl)pyrrolidin-1-yl]-3-cyclopropylpyrazin-2-yl}amino)-1,3-thiazole-5-carbonitrile] | 0.24 | 0.001
Cc1ncc(N2CCCC2c2ccc(Cl)cc2)nc1Nc1ncc(C#N)s1 (stereo not shown) [Example 42, 2-({6-[2-(4-Chlorophenyl)pyrrolidin-1-yl]-3-methylpyrazin-2-yl}amino)-1,3-thiazole-5-carbonitrile] | 0.1 | 0.0016
Cc1ccc(C2CCCN2c2nc(Nc3ncc(C#N)s3)c(C)c(-c3cnn(C)c3)n2)cc1 (stereo not shown) [Example 8, 2-({5-Methyl-2-[2-(4-methylphenyl)pyrrolidin-1-yl]-6-(1-methyl-1H-pyrazol-4-yl)pyrimidin-4-yl}amino)-1,3-thiazole-5-carbonitrile] | > 1 | 0.0039
Cc1cnc(Nc2nc(N3CCCC3c3ccc(Cl)cc3)cnc2C2CC2)s1 (stereo not shown) [Example 31, 6-[2-(4-Chlorophenyl)pyrrolidin-1-yl]-3-cyclopropyl-N-(5-methyl-1,3-thiazol-2-yl)pyrazine-2-amine] | 0.39 | 0.0053
Cc1ccc(C2CCCN2c2ncc(C)c(Nc3ncc(C#N)s3)n2)cc1 (stereo not shown) [Example 2, 2-({5-Methyl-2-[2-(4-methylphenyl)pyrrolidin-1-yl]pyrimidin-4-yl}amino)-1,3-thiazole-5-carbonitrile] | 0.27 | 0.0032
N#Cc1cnc(Nc2nc(N3CCCC3c3ccc(F)cc3)cnc2-c2cnco2)s1 (stereo not shown) [Example 21, 2-({6-[2-(4-Fluorophenyl)pyrrolidin-1-yl]-3-(1,3-oxazol-5-yl)pyrazin-2-yl}amino)-1,3-thiazole-5-carbonitrile] | > 1 | 0.013
COc1c(Nc2ncc(C#N)s2)nc(N2CCCC2c2ccc(C)cc2)nc1-c1cncnc1 (stereo not shown) [Example 3, 2-({5-Methoxy-2-[2-(4-methylphenyl)pyrrolidin-1-yl]-4,5′-bipyrimidin-6-yl}amino)-1,3-thiazole-5-carbonitrile] | > 1 | 0.0086
Cc1ncc(N2CCCC2c2ccc(F)cc2)nc1Nc1ncc(C#N)s1 (stereo not shown) [Example 41, 2-({6-[2-(4-Fluorophenyl)pyrrolidin-1-yl]-3-methylpyrazin-2-yl}amino)-1,3-thiazole-5-carbonitrile] | 0.021 | 0.00071
Cn1cc(-c2ncc(N3CCCC3c3ccc(F)cc3)nc2Nc2ncc(C#N)s2)cn1 (stereo not shown) [Example 28, 2-({6-[2-(4-Fluorophenyl)pyrrolidin-1-yl]-3-(1-methyl-1H-pyrazol-4-yl)pyrazin-2-yl}amino)-1,3-thiazole-5-carbonitrile] | > 1 | 0.051
COc1cc(C2CCCN2c2cncc(Nc3ncc(C#N)s3)n2)ccc1C (stereo not shown) [Example 33, 2-({6-[2-(3-Methoxy-4-methylphenyl)pyrrolidin-1-yl]pyrazin-2-yl}amino)-1,3-thiazole-5-carbonitrile] | 0.19 | 0.0022
Cc1ccc(C2CCCN2c2nc(C)c(C)c(Nc3ncc(C#N)s3)n2)cc1 (stereo not shown) [Example 52, 2-({5,6-Dimethyl-2-[2-(4-methylphenyl)pyrrolidin-1-yl]pyrimidin-4-yl}amino)-1,3-thiazole-5-carbonitrile] | 0.17 | 0.0018
N#Cc1cnc(Nc2nc(N3CCCC3c3ccc(F)cc3)cnc2-c2ccoc2)s1 (stereo not shown) [Example 25, 2-({6-[2-(4-Fluorophenyl)pyrrolidin-1-yl]-3-(furan-3-yl)pyrazin-2-yl}amino)-1,3-thiazole-5-carbonitrile] | > 1 | 0.026

More lines, now with the values ahead:

IC50 (JAK2 tyrosine kinase) [µM] | IC50 (ROS tyrosine kinase) [µM] | Structure (SMILES)
0.26 | 0.0011 | COc1c(Nc2ncc(C#N)s2)nc(N2CCC[C@H]2c2ccc(C)cc2)nc1-c1cnn(C)c1 [Example 10, 2-({5-Methoxy-2-[(2S)-2-(4-methylphenyl)pyrrolidin-1-yl]-6-(l-methyl-1H-pyrazol-4-yl)pyrimidin-4-yl}amino)-1,3-thiazole-5-carbonitrile]
> 1 | 0.067 | Cc1cc(-c2ncc(N3CCCC3c3ccc(F)cc3)nc2Nc2ncc(C#N)s2)ccn1 (stereo not shown) [Example 53, 2-({6-[2-(4-Fluorophenyl)pyrrolidin-1-yl]-3-(2-methylpyridin-4-yl)pyrazin-2-yl}amino)-1,3-thiazole-5-carbonitrile]
0.56 | 0.013 | COc1ccc(C2CCCN2c2cncc(Nc3ncc(C#N)s3)n2)cc1 (stereo not shown) [Example 37, 2-({6-[2-(4-Methoxyphenyl)pyrrolidin-1-yl]pyrazin-2-yl}amino)-1,3-thiazole-5-carbonitrile]
0.91 | 0.00084 | Cc1ccc([C@@H]2CCCN2c2cc(C(N)=O)c(C3CC3)c(Nc3ncc(C#N)s3)n2)cc1 [Example 66, 2-[(5-Cyano-1,3-thiazol-2-yl)amino]-3-cyclopropyl-6-[(2S)-2-(4-methylphenyl)pyrrolidin-1-yl]pyridine-4-carboxamide]
≥ 1 | 0.013 | Cc1nc(C2CC2)c(Nc2ncc(C#N)s2)nc1N1CCCC1c1ccc(Cl)cc1 (stereo not shown) [Example 44, 2-({6-[2-(4-Chlorophenyl)pyrrolidin-1-yl]-3-cyclopropyl-5-methylpyrazin-2-yl}amino)-1,3-thiazole-5-carbonitrile]
> 1 | 0.0088 | COc1cc(C)ccc1C1CCCN1c1cnc(C2CC2)c(Nc2ncc(C#N)s2)n1 (stereo not shown) [Example 23, 2-({3-Cyclopropyl-6-[2-(2-methoxy-4-methylphenyl)pyrrolidin-1-yl]pyrazin-2-yl}amino)-1,3-thiazole-5-carbonitrile]
0.35 | 0.0025 | COc1cc(C)ccc1C1CCCN1c1ncc(OC)c(Nc2ncc(C#N)s2)n1 (stereo not shown) [Example 14, 2-({5-Methoxy-2-[2-(2-methoxy-4-methylphenyl)pyrrolidin-1-yl]pyrimidin-4-yl}amino)-1,3-thiazole-5-carbonitrile]
